Eight molecules from PubChem BioAssay (NCI) can be followed below.

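Cells were grown in 96-well plates and exposed to each compound for 48 hours at five concentrations; endpoints were interpolated linearly between bracketing concentrations, or set to the highest concentration if not reached. At the GI50, growth is halved. TGI denotes the concentration required for complete inhibition of growth.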

Among the test systems are DU-145 prostate; MDA-MB-435; NCI-H460 lung; NCI-H522 lung; NCI/ADR-RES ovarian; OVCAR-3 ovarian; OVCAR-8 ovarian; SK-MEL-2 melanoma; SR leukemia; UO-31 renal.
Common to all, as to experiment: NCI anticancer screen, dose series, 48 h

Regarding `O=C(COc1ccc(/C=C2\COc3ccccc3C2=O)cc1)Nc1nccs1`, the GI50 was 4.8 µM with DU-145 prostate; 3.56 µM with MDA-MB-435; 18.6 µM in the experiment on NCI-H460 lung; 1.91 µM in the experiment with NCI-H522 lung; 24.7 µM in the experiment on NCI/ADR-RES ovarian; 2.73 µM in the experiment with OVCAR-3 ovarian. The GI50 with OVCAR-8 ovarian is 4.49 µM; with SK-MEL-2 melanoma it was 10.8 µM; in the experiment on SR leukemia, 1.31 µM; in the experiment on UO-31 renal, 11.9 µM. Besides, the TGI in the experiment with DU-145 prostate was 14.8 µM; in the experiment on MDA-MB-435, 18.4 µM; in the experiment on NCI-H460 lung it was 64.6 µM; in the experiment with NCI-H522 lung it was 4.39 µM; in the experiment with NCI/ADR-RES ovarian, above 100 µM; in the experiment with OVCAR-3 ovarian, 5.81 µM. Also, the TGI with OVCAR-8 ovarian came out at 45.2 µM; in the experiment with SK-MEL-2 melanoma, 24 µM; in the experiment with SR leukemia it was 3.23 µM; with UO-31 renal, 25.5 µM.

`Nc1nc2c(ncn2C2CCC(CO)O2)c(=O)n1C(=O)c1ccccc1` (stereo not drawn): the TGI in the experiment on DU-145 prostate, in the experiment with MDA-MB-435, in the experiment with NCI-H460 lung, in the experiment on NCI-H522 lung, with NCI/ADR-RES ovarian and with OVCAR-3 ovarian was above 100 µM throughout. Also, the TGI in the experiment with OVCAR-8 ovarian, in the experiment on SK-MEL-2 melanoma, in the experiment with SR leukemia and in the experiment on UO-31 renal was above 100 µM each time.

Take `CC(C)(C)N1CCC1CN` (stereo not drawn): the GI50 in the experiment on DU-145 prostate, in the experiment on MDA-MB-435, in the experiment with NCI-H460 lung, in the experiment on NCI-H522 lung, with NCI/ADR-RES ovarian and in the experiment on OVCAR-3 ovarian was above 100 µM in each case. Further, the GI50 in the experiment with OVCAR-8 ovarian, with SK-MEL-2 melanoma, in the experiment on SR leukemia and in the experiment on UO-31 renal was above 100 µM throughout. For the same molecule, the TGI with DU-145 prostate, in the experiment with MDA-MB-435, in the experiment with NCI-H460 lung, in the experiment with NCI-H522 lung, in the experiment on NCI/ADR-RES ovarian and with OVCAR-3 ovarian was above 100 µM throughout. The TGI with OVCAR-8 ovarian, in the experiment on SK-MEL-2 melanoma, with SR leukemia and with UO-31 renal was above 100 µM in each case.

Regarding `O=C1C(Cl)=C(Sc2nnc3c4ccccc4c4ccccc4c3n2)C(=O)c2ccccc21`, the TGI was 22 µM in the experiment on DU-145 prostate; 3.41 µM in the experiment with MDA-MB-435; 37 µM with NCI-H460 lung; 57.7 µM in the experiment on NCI-H522 lung; above 86.3 µM in the experiment on NCI/ADR-RES ovarian; 27.2 µM in the experiment with OVCAR-3 ovarian. The TGI in the experiment on OVCAR-8 ovarian is 29.6 µM; in the experiment on SK-MEL-2 melanoma it was 34.8 µM; in the experiment with SR leukemia, above 56 µM; in the experiment on UO-31 renal, 28.4 µM.

`COC(=O)[C@@H](C)C[C@H](Cc1cn(C)c2ccccc12)NC(=O)c1csc([C@@H](C[C@H](C(C)C)N(C)C(=O)[C@@H](NC(=O)[C@H]2CCCCN2C)C(C)C)OC(C)=O)n1`: the GI50 in the experiment on DU-145 prostate is 0.00811 µM; with MDA-MB-435 it was 0.00215 µM; in the experiment with NCI-H460 lung, 0.0101 µM; in the experiment on NCI-H522 lung, 0.00303 µM; in the experiment with NCI/ADR-RES ovarian it was 0.417 µM; in the experiment on OVCAR-3 ovarian it was 0.0051 µM. For the same molecule, the GI50 was 0.0302 µM in the experiment with OVCAR-8 ovarian, 0.0115 µM in the experiment with SK-MEL-2 melanoma, 0.00298 µM in the experiment on SR leukemia and 0.169 µM in the experiment on UO-31 renal. The TGI in the experiment with MDA-MB-435 was 0.00856 µM; in the experiment with NCI-H460 lung it was above 6.11 µM; in the experiment with NCI-H522 lung it was 0.0108 µM; in the experiment with NCI/ADR-RES ovarian, above 16.7 µM; with OVCAR-8 ovarian it was above 16.7 µM; in the experiment with SK-MEL-2 melanoma, above 16.7 µM. Further, the TGI in the experiment with SR leukemia and in the experiment with UO-31 renal was above 16.7 µM in each case.

With `NC1=CC(=O)c2cccnc2C1=O`, the GI50 in the experiment with DU-145 prostate is 1.58 µM; with MDA-MB-435, 0.833 µM; in the experiment on NCI-H460 lung, 1.23 µM; with NCI-H522 lung, 0.533 µM; in the experiment on NCI/ADR-RES ovarian, 2.29 µM; in the experiment on OVCAR-3 ovarian, 1.44 µM. The GI50 was 1.66 µM in the experiment on OVCAR-8 ovarian, 1.63 µM with SK-MEL-2 melanoma, 0.729 µM in the experiment on SR leukemia and 1.17 µM in the experiment on UO-31 renal. Besides, the TGI amounted to 2.97 µM with DU-145 prostate; 2.12 µM in the experiment with MDA-MB-435; 3.25 µM in the experiment with NCI-H460 lung; 2.17 µM with NCI-H522 lung; 11.2 µM in the experiment with NCI/ADR-RES ovarian; 3.16 µM in the experiment on OVCAR-3 ovarian. In addition, the TGI was 4.2 µM in the experiment with OVCAR-8 ovarian, 3.14 µM in the experiment on SK-MEL-2 melanoma, 3.69 µM in the experiment on SR leukemia and 2.5 µM in the experiment on UO-31 renal.

With `COc1cc2nccc(Oc3ccc(NC(=O)NC4CC4)c(Cl)c3)c2cc1C(N)=O`, the GI50 with DU-145 prostate is 21.6 µM; with MDA-MB-435, above 100 µM; in the experiment with NCI-H460 lung it was 39.9 µM; with NCI-H522 lung, 5.74 µM; in the experiment with NCI/ADR-RES ovarian, 35.2 µM; with OVCAR-3 ovarian, 23.1 µM. Moreover, the GI50 was 17.5 µM in the experiment on OVCAR-8 ovarian, 19.1 µM in the experiment on SK-MEL-2 melanoma, 30.5 µM with SR leukemia and 5.55 µM in the experiment on UO-31 renal. Further, the TGI in the experiment on DU-145 prostate is above 100 µM; in the experiment with MDA-MB-435, above 100 µM; in the experiment on NCI-H460 lung, above 100 µM; in the experiment on NCI-H522 lung, 28.2 µM; in the experiment with NCI/ADR-RES ovarian it was above 100 µM; in the experiment on OVCAR-3 ovarian, above 100 µM. The TGI with OVCAR-8 ovarian is above 79.1 µM; in the experiment on SK-MEL-2 melanoma it was 48.6 µM; in the experiment with SR leukemia, above 100 µM; with UO-31 renal, above 100 µM.

On to `C=CCC(N[C@@H](CO)c1ccccc1)c1cn(Cc2ccccc2Cl)c(=O)n(Cc2ccccc2Cl)c1=O` (stereo partly drawn), for which the GI50 in the experiment on DU-145 prostate, in the experiment with MDA-MB-435, with NCI-H460 lung, in the experiment with NCI-H522 lung, in the experiment with NCI/ADR-RES ovarian and in the experiment on OVCAR-3 ovarian was above 100 µM each time. The GI50 with OVCAR-8 ovarian, in the experiment with SK-MEL-2 melanoma, in the experiment with SR leukemia and with UO-31 renal was above 100 µM throughout. Also, the TGI in the experiment with DU-145 prostate, with MDA-MB-435, in the experiment on NCI-H460 lung, with NCI-H522 lung, in the experiment with NCI/ADR-RES ovarian and in the experiment with OVCAR-3 ovarian was above 100 µM throughout. Besides, the TGI with OVCAR-8 ovarian, in the experiment on SK-MEL-2 melanoma, with SR leukemia and in the experiment with UO-31 renal was above 100 µM in each case.
